In brackets after ≈: the same amount, converted by molar mass.
Legend:
Assay type in all cases: functional
Mycobacterium avium [1] = assay: Antimycobacterial activity against Mycobacterium avium CNCTC My 330/88 after 21 days by micromethod; conditions: CNCTC My 330/88, 504 h
Mycobacterium kansasii [2] = assay: Antimycobacterial activity against Mycobacterium kansasii CNCTC My 235/80 after 14 days by micromethod; conditions: CNCTC My 235/80, 336 h
Mycobacterium kansasii [3] = assay: Antimycobacterial activity against Mycobacterium kansasii CNCTC My 235/80 after 7 days by micromethod; conditions: CNCTC My 235/80, 168 h
Mycobacterium kansasii [4] = assay: Antimycobacterial activity against Mycobacterium kansasii 6509/96 after 21 days by micromethod; conditions: 6509/96, 504 h
Mycobacterium kansasii [5] = assay: Antimycobacterial activity against Mycobacterium kansasii 6509/96 after 7 days by micromethod; conditions: 6509/96, 168 h
[6] = tested on: Mycobacterium tuberculosis; assay: Antimycobacterial activity against Mycobacterium tuberculosis CNCTC My 331/88 after 14 days by micromethod; conditions: CNCTC My 331/88, 336 h
[7] = tested on: Mycobacterium tuberculosis; assay: Antimycobacterial activity against Mycobacterium tuberculosis CNCTC My 331/88 after 21 days by micromethod; conditions: CNCTC My 331/88, 504 h
Mycobacterium kansasii [8] = assay: Antimycobacterial activity against Mycobacterium kansasii CNCTC My 235/80 after 21 days by micromethod; conditions: CNCTC My 235/80, 504 h
Mycobacterium kansasii [9] = assay: Antimycobacterial activity against Mycobacterium kansasii 6509/96 after 14 days by micromethod; conditions: 6509/96, 336 h
Mycobacterium avium [10] = assay: Antimycobacterial activity against Mycobacterium avium CNCTC My 330/88 after 14 days by micromethod; conditions: CNCTC My 330/88, 336 h

Row | Structure (SMILES) | MIC (Mycobacterium avium [1]) [µM] | MIC (Mycobacterium kansasii [2]) [µM] | MIC (Mycobacterium kansasii [3]) [µM] | MIC (Mycobacterium kansasii [4]) [µM] | MIC (Mycobacterium kansasii [5]) [µM] | MIC [6] [µM] | MIC [7] [µM] | MIC (Mycobacterium kansasii [8]) [µM] | MIC (Mycobacterium kansasii [9]) [µM] | MIC (Mycobacterium avium [10]) [µM]
1 | O=[N+]([O-])c1cc(C[Se]c2nnnn2-c2ccc(Br)cc2)cc([N+](=O)[O-])c1 | 125 (≈ 60.5 µg/mL) | 4 (≈ 1.94 µg/mL) | 2 (≈ 0.968 µg/mL) | 8 (≈ 3.87 µg/mL) | 2 (≈ 0.968 µg/mL) | 2 (≈ 0.968 µg/mL) | 2 (≈ 0.968 µg/mL) | 4 (≈ 1.94 µg/mL) | 4 (≈ 1.94 µg/mL) | 125 (≈ 60.5 µg/mL)
2 | Nn1nnnc1SCc1cc([N+](=O)[O-])cc([N+](=O)[O-])c1 | 1000 (≈ 297 µg/mL) | 32 (≈ 9.51 µg/mL) | 8 (≈ 2.38 µg/mL) | 32 (≈ 9.51 µg/mL) | 16 (≈ 4.76 µg/mL) | 8 (≈ 2.38 µg/mL) | 16 (≈ 4.76 µg/mL) | 32 (≈ 9.51 µg/mL) | 32 (≈ 9.51 µg/mL) | 1000 (≈ 297 µg/mL)
3 | CCCCCCn1nnnc1[Se]Cc1cc([N+](=O)[O-])cc([N+](=O)[O-])c1 | 32 (≈ 13.2 µg/mL) | 2 (≈ 0.827 µg/mL) | 1 (≈ 0.413 µg/mL) | 4 (≈ 1.65 µg/mL) | 2 (≈ 0.827 µg/mL) | 1 (≈ 0.413 µg/mL) | 1 (≈ 0.413 µg/mL) | 2 (≈ 0.827 µg/mL) | 4 (≈ 1.65 µg/mL) | 16 (≈ 6.61 µg/mL)
4 | COc1cc(-n2nnnc2SCc2cc([N+](=O)[O-])cc([N+](=O)[O-])c2)cc(OC)c1OC | 250 (≈ 112 µg/mL) | 32 (≈ 14.3 µg/mL) | 16 (≈ 7.17 µg/mL) | 32 (≈ 14.3 µg/mL) | 16 (≈ 7.17 µg/mL) | 16 (≈ 7.17 µg/mL) | 16 (≈ 7.17 µg/mL) | 32 (≈ 14.3 µg/mL) | 16 (≈ 7.17 µg/mL) | 250 (≈ 112 µg/mL)
5 | COc1cccc(-n2nnnc2SCc2cc([N+](=O)[O-])cc([N+](=O)[O-])c2)c1 | 125 (≈ 48.5 µg/mL) | 125 (≈ 48.5 µg/mL) | 125 (≈ 48.5 µg/mL) | 125 (≈ 48.5 µg/mL) | 125 (≈ 48.5 µg/mL) | 2 (≈ 0.777 µg/mL) | 4 (≈ 1.55 µg/mL) | 125 (≈ 48.5 µg/mL) | 125 (≈ 48.5 µg/mL) | 125 (≈ 48.5 µg/mL)
6 | O=[N+]([O-])c1cc(CSc2nnnn2-c2ccccc2)cc([N+](=O)[O-])c1 | 62 (≈ 22.2 µg/mL) | 4 (≈ 1.43 µg/mL) | 2 (≈ 0.717 µg/mL) | 4 (≈ 1.43 µg/mL) | 2 (≈ 0.717 µg/mL) | 4 (≈ 1.43 µg/mL) | 4 (≈ 1.43 µg/mL) | 16 (≈ 5.73 µg/mL) | 2 (≈ 0.717 µg/mL) | 62 (≈ 22.2 µg/mL)
7 | O=[N+]([O-])c1ccc(CSc2nnnn2-c2ccccc2)c([N+](=O)[O-])c1 | 62 (≈ 22.2 µg/mL) | 62 (≈ 22.2 µg/mL) | 16 (≈ 5.73 µg/mL) | 32 (≈ 11.5 µg/mL) | 8 (≈ 2.87 µg/mL) | 8 (≈ 2.87 µg/mL) | 16 (≈ 5.73 µg/mL) | 62 (≈ 22.2 µg/mL) | 32 (≈ 11.5 µg/mL) | 32 (≈ 11.5 µg/mL)
8 | O=[N+]([O-])c1cc(CSc2nnnn2-c2ccc(Br)cc2)cc([N+](=O)[O-])c1 | 125 (≈ 54.7 µg/mL) | 2 (≈ 0.874 µg/mL) | 1 (≈ 0.437 µg/mL) | 4 (≈ 1.75 µg/mL) | 2 (≈ 0.874 µg/mL) | 1 (≈ 0.437 µg/mL) | 1 (≈ 0.437 µg/mL) | 2 (≈ 0.874 µg/mL) | 4 (≈ 1.75 µg/mL) | 125 (≈ 54.7 µg/mL)
9 | O=[N+]([O-])c1ccc(CSc2nnnn2-c2ccc([N+](=O)[O-])cc2)cc1 | 250 (≈ 89.6 µg/mL) | 250 (≈ 89.6 µg/mL) | 250 (≈ 89.6 µg/mL) | 250 (≈ 89.6 µg/mL) | 250 (≈ 89.6 µg/mL) | 250 (≈ 89.6 µg/mL) | 250 (≈ 89.6 µg/mL) | 250 (≈ 89.6 µg/mL) | 250 (≈ 89.6 µg/mL) | 250 (≈ 89.6 µg/mL)
10 | O=[N+]([O-])c1cc(CSc2nnn[nH]2)cc([N+](=O)[O-])c1 | 1000 (≈ 282 µg/mL) | 1000 (≈ 282 µg/mL) | 250 (≈ 70.6 µg/mL) | 500 (≈ 141 µg/mL) | 250 (≈ 70.6 µg/mL) | 1000 (≈ 282 µg/mL) | 1000 (≈ 282 µg/mL) | 1000 (≈ 282 µg/mL) | 500 (≈ 141 µg/mL) | 1000 (≈ 282 µg/mL)
11 | O=[N+]([O-])c1cc(CSc2nnnn2-c2ccc(F)cc2)cc([N+](=O)[O-])c1 | 250 (≈ 94.1 µg/mL) | 4 (≈ 1.51 µg/mL) | 2 (≈ 0.753 µg/mL) | 16 (≈ 6.02 µg/mL) | 4 (≈ 1.51 µg/mL) | 2 (≈ 0.753 µg/mL) | 2 (≈ 0.753 µg/mL) | 4 (≈ 1.51 µg/mL) | 8 (≈ 3.01 µg/mL) | 250 (≈ 94.1 µg/mL)
12 | Cn1nnnc1SCc1cc([N+](=O)[O-])cc([N+](=O)[O-])c1 | 1000 (≈ 296 µg/mL) | 16 (≈ 4.74 µg/mL) | 4 (≈ 1.19 µg/mL) | 32 (≈ 9.48 µg/mL) | 16 (≈ 4.74 µg/mL) | 4 (≈ 1.19 µg/mL) | 8 (≈ 2.37 µg/mL) | 32 (≈ 9.48 µg/mL) | 32 (≈ 9.48 µg/mL) | 500 (≈ 148 µg/mL)
13 | O=[N+]([O-])c1cc(CSc2nnnn2-c2ccc(Cl)cc2)cc([N+](=O)[O-])c1 | 125 (≈ 49.1 µg/mL) | 4 (≈ 1.57 µg/mL) | 2 (≈ 0.786 µg/mL) | 4 (≈ 1.57 µg/mL) | 2 (≈ 0.786 µg/mL) | 1 (≈ 0.393 µg/mL) | 2 (≈ 0.786 µg/mL) | 4 (≈ 1.57 µg/mL) | 4 (≈ 1.57 µg/mL) | 125 (≈ 49.1 µg/mL)
14 | COc1ccc(-n2nnnc2SCc2cc(N)cc(N)c2)cc1 | 1000 (≈ 328 µg/mL) | 1000 (≈ 328 µg/mL) | 250 (≈ 82.1 µg/mL) | 1000 (≈ 328 µg/mL) | 250 (≈ 82.1 µg/mL) | 125 (≈ 41.1 µg/mL) | 125 (≈ 41.1 µg/mL) | 1000 (≈ 328 µg/mL) | 1000 (≈ 328 µg/mL) | 1000 (≈ 328 µg/mL)
15 | CCCCCCCCCCCCCCCCSCc1cc([N+](=O)[O-])cc([N+](=O)[O-])c1 | 1000 (≈ 439 µg/mL) | 500 (≈ 219 µg/mL) | 500 (≈ 219 µg/mL) | 500 (≈ 219 µg/mL) | 500 (≈ 219 µg/mL) | 1000 (≈ 439 µg/mL) | 1000 (≈ 439 µg/mL) | 500 (≈ 219 µg/mL) | 500 (≈ 219 µg/mL) | 1000 (≈ 439 µg/mL)
16 | COc1ccc(-n2nnnc2[S+]([O-])Cc2cc([N+](=O)[O-])cc([N+](=O)[O-])c2)cc1 (centres undefined) | 250 (≈ 101 µg/mL) | 125 (≈ 50.5 µg/mL) | 62 (≈ 25.1 µg/mL) | 125 (≈ 50.5 µg/mL) | 32 (≈ 12.9 µg/mL) | 62 (≈ 25.1 µg/mL) | 62 (≈ 25.1 µg/mL) | 125 (≈ 50.5 µg/mL) | 125 (≈ 50.5 µg/mL) | 250 (≈ 101 µg/mL)
17 | COc1ccc(-n2nnnc2SCc2ccc([N+](=O)[O-])cc2[N+](=O)[O-])cc1 | 62 (≈ 24.1 µg/mL) | 62 (≈ 24.1 µg/mL) | 32 (≈ 12.4 µg/mL) | 32 (≈ 12.4 µg/mL) | 8 (≈ 3.11 µg/mL) | 8 (≈ 3.11 µg/mL) | 8 (≈ 3.11 µg/mL) | 62 (≈ 24.1 µg/mL) | 16 (≈ 6.21 µg/mL) | 62 (≈ 24.1 µg/mL)
18 | O=[N+]([O-])c1cc(CSCc2ccccc2)cc([N+](=O)[O-])c1 | 125 (≈ 38 µg/mL) | 125 (≈ 38 µg/mL) | 125 (≈ 38 µg/mL) | 125 (≈ 38 µg/mL) | 125 (≈ 38 µg/mL) | 250 (≈ 76.1 µg/mL) | 250 (≈ 76.1 µg/mL) | 125 (≈ 38 µg/mL) | 125 (≈ 38 µg/mL) | 125 (≈ 38 µg/mL)
19 | COC(=O)c1cccc(-n2nnnc2SCc2cc([N+](=O)[O-])cc([N+](=O)[O-])c2)c1 | 250 (≈ 104 µg/mL) | 500 (≈ 208 µg/mL) | 500 (≈ 208 µg/mL) | 500 (≈ 208 µg/mL) | 500 (≈ 208 µg/mL) | 8 (≈ 3.33 µg/mL) | 16 (≈ 6.66 µg/mL) | 500 (≈ 208 µg/mL) | 500 (≈ 208 µg/mL) | 250 (≈ 104 µg/mL)
20 | NNC(=O)c1ccncc1 [ISONIAZID] | > 250 | > 250 | > 250 | 4 (≈ 0.549 µg/mL) | 4 (≈ 0.549 µg/mL) | 0.5 (≈ 0.0686 µg/mL) | 1 (≈ 0.137 µg/mL) |  | 4 (≈ 0.549 µg/mL) | > 250
21 | N#CSCc1cc([N+](=O)[O-])cc([N+](=O)[O-])c1 | 62 (≈ 14.8 µg/mL) | 8 (≈ 1.91 µg/mL) | 2 (≈ 0.478 µg/mL) | 16 (≈ 3.83 µg/mL) | 4 (≈ 0.957 µg/mL) | 4 (≈ 0.957 µg/mL) | 4 (≈ 0.957 µg/mL) | 16 (≈ 3.83 µg/mL) | 8 (≈ 1.91 µg/mL) | 32 (≈ 7.65 µg/mL)
22 | O=[N+]([O-])c1cc(COc2nnnn2-c2ccc(Cl)cc2)cc([N+](=O)[O-])c1 | 62 (≈ 23.4 µg/mL) | 16 (≈ 6.03 µg/mL) | 8 (≈ 3.01 µg/mL) | 32 (≈ 12.1 µg/mL) | 8 (≈ 3.01 µg/mL) | 2 (≈ 0.753 µg/mL) | 4 (≈ 1.51 µg/mL) | 32 (≈ 12.1 µg/mL) | 16 (≈ 6.03 µg/mL) | 32 (≈ 12.1 µg/mL)
23 | c1ccc(C[Se]c2nnnn2-c2ccccc2)cc1 | 125 (≈ 39.4 µg/mL) | 8 (≈ 2.52 µg/mL) | 2 (≈ 0.63 µg/mL) | 250 (≈ 78.8 µg/mL) | 32 (≈ 10.1 µg/mL) | 125 (≈ 39.4 µg/mL) | 125 (≈ 39.4 µg/mL) | 16 (≈ 5.04 µg/mL) | 125 (≈ 39.4 µg/mL) | 62 (≈ 19.5 µg/mL)
